Read-outs that look alike come from different tables or passages of the source.
Assays:
Type in all cases: cell-based, human
[1] = test system: BEL-7402 liver cancer cell; test: MTT anti-proliferative assay, BEL-7402; conditions: for IC50: MTT, 48 h
Outline: (§1)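 Cells grown in DMEM supplemented with FBS were seeded in 96-well format and treated with the analogs. Cytotoxicity was scored by MTT as reduction of net growth.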

[2] = test system: HeLa cervical cancer cell; test: MTT anti-proliferative assay, HeLa; conditions: MTT, 48 h
Outline: as §1

[3] = test system: HCT116 colectal cancer cell; test: MTT anti-proliferative assay, HCT116; conditions: for IC50: MTT, 48 h
Outline: as §1

L-02 normal liver cell = test: MTT assay, L-02 normal cells; conditions: 48 h
Outline: as §1

HepG2 hepatoma cell = test: MTT anti-proliferative assay, HepG2; conditions: for IC50: MTT, 48 h, read-out: IC50 HepG-2
Outline: as §1

AGS gastric cancer cell = test: MTT anti-proliferative assay, AGS; conditions: for IC50: MTT, 48 h
Outline: as §1

MCF-7 breast cancer cell = test: MTT anti-proliferative assay, MCF-7; conditions: MTT, 48 h
Outline: as §1

[4] = test system: diffuse large B-cell lymphoma SU-DHL-10 cell; test: MTT anti-proliferative assay, SU-DHL-10; conditions: MTT, 48 h, read-out: IC50 SU-DHL-10
Outline: as §1

[5] = test system: Raji B lymphoblastoid cell; test: MTT anti-proliferative assay, Raji; conditions: for IC50: MTT, 48 h, read-out: IC50 Raji
Outline: as §1

[6] = test system: SGC-7901 early differentiation gastric cancer cell; test: MTT anti-proliferative assay, SGC-7901; conditions: for IC50: MTT, 48 h
Outline: as §1

[7] = test system: MCF-10A normal breast cell; test: MTT assay, MCF-10A normal cells; conditions: 48 h
Outline: as §1

A549 lung cancer cell = test: MTT anti-proliferative assay, A549; conditions: for IC50: MTT, 48 h
Outline: as §1

[8] = test system: MGC-803 late stage differentiation gastric cancer cell; test: MTT anti-proliferative assay, MGC-803; conditions: for IC50: MTT, 48 h
Outline: as §1

Compound | IC50 [1] [µM] | IC50 [2] [µM] | IC50 ([3]; read-out: IC50 HCT-116) [µM] | IC50 (L-02 normal liver cell) [µM] | IC50 (HepG2 hepatoma cell) [µM] | IC50 (AGS gastric cancer cell) [µM] | IC50 (MCF-7 breast cancer cell) [µM] | IC50 [4] [µM] | IC50 [5] [µM] | IC50 [6] [µM] | IC50 [7] [µM] | IC50 (A549 lung cancer cell) [µM] | IC50 [8] [µM] | further results
COc1cc(/C=C(\C#N)c2ccc(OC(F)(F)F)cc2)cc(OC)c1OC [Compound 1a2l] | > 100 | > 100 | > 100 | > 100 | > 100 | > 100 | > 100 | > 100 | > 100 | > 100 | > 100 | > 100 | > 100 | 
N#C/C(=C\c1ccc(F)cc1)c1ccc(C(F)(F)F)cc1 [Compound 1f2d] | > 100 | > 100 | > 100 | > 100 | > 100 | > 100 | > 100 | > 100 | > 100 | > 100 | > 100 | > 100 | 51.9 ± 2.1 | SI (selectivity index), IC50 (L-02)/IC50 (MGC-803) [8]: > 1.9
COc1cccc(/C=C(\C#N)c2ccc(OC(F)(F)F)cc2)c1 [Compound 1a2k] | > 100 | > 100 | > 100 | > 100 | > 100 | > 100 | > 100 | > 100 | > 100 | > 100 | > 100 | > 100 | > 100 | 
CCCCCCOc1ccc(/C=C(\C#N)c2ccc(OC(F)(F)F)cc2)cc1 [Compound 1a2p] | > 100 | > 100 | > 100 | > 100 | > 100 | > 100 | > 100 | > 100 | > 100 | > 100 | > 100 | > 100 | > 100 | 
CCN(CC)c1ccc(/C=C(\C#N)c2ccc(OC(F)(F)F)cc2)cc1 [Compound 1a2i] | > 100 | > 100 | > 100 | > 100 | > 100 | > 100 | > 100 | > 100 | 45.1 ± 15.6 | > 100 | > 100 | > 100 | > 100 | SI (selectivity index), IC50 (L-02)/IC50 (Raji) [5]: > 2.2
N#C/C(=C\c1ccccc1)c1ccc(OC(F)(F)F)cc1 [Compound 1a2a] | > 100 | > 100 | > 100 | > 100 | > 100 | > 100 | > 100 | > 100 | > 100 | > 100 | > 100 | > 100 | > 100 | 
N#C/C(=C\c1ccc(Oc2ccccc2)cc1)c1ccc(C(F)(F)F)cc1 [Compound 1f2v] | > 100 | > 100 | > 100 | > 100 | > 100 | > 100 | > 100 | > 100 | > 100 | > 100 | > 100 | > 100 | > 100 | 
N#C/C(=C\c1ccccn1)c1ccc(C(F)(F)F)cc1 [Compound 1f3c] | > 100 | > 100 | 87.6 ± 9.1 | > 100 | > 100 | > 100 | > 100 | > 100 | > 100 | > 100 | > 100 | > 100 | > 100 | SI (selectivity index), IC50 (L-02)/IC50 (HCT-116) [3]: > 1.1
COc1ccc(/C=C(\C#N)c2ccccc2OC(F)(F)F)cc1 [Compound 1c2e] | 10.8 ± 2.3 | 75.8 ± 12.4 | 8.4 ± 2.4 | 36.1 ± 4.8 | 24.9 ± 7 | 7.6 ± 0.6 | > 100 | > 100 | 41.3 ± 5.5 | 7.8 ± 0.8 | > 100 | > 100 | 2.5 ± 1.1 | SI (selectivity index), IC50 (L-02)/IC50 (BEL-7402) [1]: > 3.3; SI (selectivity index), IC50 (L-02)/IC50 (HCT-116) [3]: > 4.2; SI (selectivity index), IC50 (L-02)/IC50 (HepG-2) (HepG2 hepatoma cell): > 1.4; SI (selectivity index), IC50 (L-02)/IC50 (AGS) (AGS gastric cancer cell): > 4.7; SI (selectivity index), IC50 (L-02)/IC50 (SGC-7901) [6]: > 4.5; SI (selectivity index), IC50 (L-02)/IC50 (MGC-803) [8]: > 14.2
N#C/C(=C\c1c(F)cccc1Cl)c1ccc(C(F)(F)F)cc1 [Compound 1f2j] | > 100 | > 100 | > 100 | > 100 | > 100 | > 100 | > 100 | > 100 | > 100 | > 100 | > 100 | > 100 | > 100 | 
N#C/C(=C\c1ccccc1C(F)(F)F)c1ccc(C(F)(F)F)cc1 [Compound 1f2m] | > 100 | > 100 | > 100 | > 100 | > 100 | > 100 | > 100 | > 100 | > 100 | > 100 | > 100 | > 100 | > 100 | SI (selectivity index), IC50 (L-02)/IC50 (HCT-116) [3]: > 1.7; SI (selectivity index), IC50 (L-02)/IC50 (AGS) (AGS gastric cancer cell): > 2.1; SI (selectivity index), IC50 (L-02)/IC50 (A549) (A549 lung cancer cell): > 2.6
N#C/C(=C\c1ccc(N2CCCCC2)cc1)c1ccc(OC(F)(F)F)cc1 [Compound 1a2u] | > 100 | > 100 | > 100 | > 100 | > 100 | > 100 | > 100 | > 100 | > 100 | > 100 | > 100 | > 100 | > 100 | 
COc1cccc(-n2cc(/C=C(\C#N)c3ccc(OC(F)(F)F)cc3)nn2)c1 [Compound 7b] |  |  |  |  |  |  |  |  |  |  |  |  |  | IC50 ([1]; Homo sapiens, Bel-7402): > 100 µM; IC50 ([2]; Homo sapiens, HeLa): > 100 µM; IC50 ([3]; Homo sapiens, HCT-116): > 100 µM; IC50 (L-02 normal liver cell; Homo sapiens): > 100 µM; IC50 (HepG2 hepatoma cell; Homo sapiens, HepG2): > 100 µM; IC50 (AGS gastric cancer cell; Homo sapiens): > 100 µM; IC50 (MCF-7 breast cancer cell; Homo sapiens, MCF7): > 100 µM; IC50 ([4]; Homo sapiens, SU-DHL10): > 100 µM; IC50 ([5]; Homo sapiens, Raji): > 100 µM; IC50 ([6]; Homo sapiens, SGC-7901): > 100 µM; IC50 ([7]; Homo sapiens, MCF-10A): > 100 µM; IC50 (A549 lung cancer cell; Homo sapiens, A549): > 100 µM; IC50 ([8]; Homo sapiens, MGC-803): > 100 µM
N#C/C(=C\c1ccc(N2CCOCC2)cc1)c1cccc(OC(F)(F)F)c1 [Compound 1b2i] | 13 ± 1.1 | > 100 | 12.3 ± 1.6 | 28.5 ± 0.8 | 23.5 ± 4.3 | 23.9 ± 2.7 | > 100 | 53.6 ± 7.5 | 23.7 ± 2.1 | 46 ± 4.9 | 79.6 ± 5.7 | > 100 | 10.8 ± 2.9 | SI (selectivity index), IC50 (L-02)/IC50 (BEL-7402) [1]: > 2.1; SI (selectivity index), IC50 (L-02)/IC50 (HCT-116) [3]: > 2.3; SI (selectivity index), IC50 (L-02)/IC50 (HepG-2) (HepG2 hepatoma cell): > 1.2; SI (selectivity index), IC50 (L-02)/IC50 (AGS) (AGS gastric cancer cell): > 1.1; SI (selectivity index), IC50 (L-02)/IC50 (Raji) [5]: > 1.1; SI (selectivity index), IC50 (L-02)/IC50 (MGC-803) [8]: > 2.6
COc1ccc(/C(C#N)=C/c2ccc(N(C)C)cc2)cc1 [Compound 1e2b] | > 100 | > 100 | > 100 | > 100 | > 100 | > 100 | > 100 | > 100 | 12.7 ± 3.8 | 22.6 | > 100 | > 100 | 15.1 ± 1.2 | SI (selectivity index), IC50 (L-02)/IC50 (Raji) [5]: > 7.8; SI (selectivity index), IC50 (L-02)/IC50 (SGC-7901) [6]: > 4.4; SI (selectivity index), IC50 (L-02)/IC50 (MGC-803) [8]: > 6.6
Cc1cc(C)c(/C=C(\C#N)c2ccc(OC(F)(F)F)cc2)c(C)c1 [Compound 1a2r] | > 100 | > 100 | > 100 | > 100 | > 100 | > 100 | > 100 | > 100 | > 100 | > 100 | > 100 | > 100 | > 100 | 
N#C/C(=C\c1ccc(N2CCOCC2)cc1)c1ccc(OC(F)(F)F)cc1 [Compound 1a2s] | > 100 | > 100 | > 100 | > 100 | > 100 | > 100 | > 100 | > 100 | > 100 | > 100 | > 100 | > 100 | > 100 | 
CCCCOc1ccc(/C=C(\C#N)c2ccc(OC(F)(F)F)cc2)cc1 [Compound 1a2n] | > 100 | > 100 | > 100 | > 100 | > 100 | > 100 | > 100 | > 100 | > 100 | > 100 | > 100 | > 100 | > 100 | 
